Data: article PMC8524670 (Pharmacology Research & Perspectives, 2021)

Target: T1, CYP1A2 (Homo sapiens, UniProt P05177)
T1 sequence (P05177 1-516): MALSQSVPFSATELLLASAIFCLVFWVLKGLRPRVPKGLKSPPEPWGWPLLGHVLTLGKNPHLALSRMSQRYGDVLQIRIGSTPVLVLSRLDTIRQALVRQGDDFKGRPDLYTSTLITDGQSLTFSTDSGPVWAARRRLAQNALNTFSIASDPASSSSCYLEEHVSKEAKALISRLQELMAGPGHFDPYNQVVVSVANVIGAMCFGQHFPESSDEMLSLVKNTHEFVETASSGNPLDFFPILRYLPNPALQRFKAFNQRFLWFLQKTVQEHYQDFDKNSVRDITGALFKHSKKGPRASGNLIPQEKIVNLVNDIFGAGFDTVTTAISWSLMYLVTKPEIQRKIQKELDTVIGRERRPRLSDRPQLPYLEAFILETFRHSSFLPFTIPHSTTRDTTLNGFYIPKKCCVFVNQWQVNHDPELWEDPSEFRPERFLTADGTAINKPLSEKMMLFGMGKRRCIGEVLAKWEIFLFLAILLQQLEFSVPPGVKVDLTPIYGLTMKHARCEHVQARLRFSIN
Details: 10 µM zanubrutinib, 30 min pre-incubation with HLMs and NADPH

Compound: C=CC(=O)N1CCC([C@@H]2CCNc3c(C(N)=O)c(-c4ccc(Oc5ccccc5)cc4)nn32)CC1 [zanubrutinib]
- Percent loss of enzymatic activity: 8.10%
